Reference: US9029389B2 (Institut Pasteur Korea, priority 2011, dated 2015)

These compounds were tested against T1, Human 5-lipoxygenase (Homo sapiens, UniProt P09917) (assay: Activity of compounds against 5-LO enzyme (LTB4 measurement and/or fluorescence method)). Details: 5-LO, single concentration of 10 uM in duplicate.
T1 construct: purchased Cayman 60402; host or cells: insect cells
T1 sequence (P09917 1-674): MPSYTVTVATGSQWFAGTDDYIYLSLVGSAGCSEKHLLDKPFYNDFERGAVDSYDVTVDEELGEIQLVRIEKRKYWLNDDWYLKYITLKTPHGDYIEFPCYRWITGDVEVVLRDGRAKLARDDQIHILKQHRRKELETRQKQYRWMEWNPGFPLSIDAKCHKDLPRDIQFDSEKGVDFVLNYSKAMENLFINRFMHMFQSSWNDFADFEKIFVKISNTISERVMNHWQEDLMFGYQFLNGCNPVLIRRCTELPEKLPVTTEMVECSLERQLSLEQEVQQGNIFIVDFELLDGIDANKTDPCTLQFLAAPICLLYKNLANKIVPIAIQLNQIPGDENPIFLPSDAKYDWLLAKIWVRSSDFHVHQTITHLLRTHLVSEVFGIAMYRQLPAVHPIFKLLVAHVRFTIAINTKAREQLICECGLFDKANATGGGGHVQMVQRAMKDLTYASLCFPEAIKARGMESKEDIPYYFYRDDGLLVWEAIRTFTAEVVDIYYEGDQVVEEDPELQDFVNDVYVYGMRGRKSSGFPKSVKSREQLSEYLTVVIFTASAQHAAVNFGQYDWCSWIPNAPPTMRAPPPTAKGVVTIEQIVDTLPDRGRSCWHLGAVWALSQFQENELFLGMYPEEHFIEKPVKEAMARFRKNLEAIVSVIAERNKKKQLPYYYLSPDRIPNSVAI
Assay type: biochemical
Method: The activity of compounds against 5-LO were determined by measuring LTB4 (leukotriene B4) levels and/or by a fluorescence method. Both approaches are outlined in more detail below;
Human 5-lipoxygenase (Cayman, Cat#60402) produced in insect cells was pre-incubated with compound for 15 min at RT in incubation buffer (50 mM Tris-Cl, pH 7.4, 2 mM CaCl2, 0.1 mM ATP, 1% DMSO). The enzymatic reaction was started by adding arachidonic acid to a final concentration of 3 uM. After 5 min of incubation at 37° C., the reaction was stopped by heatinactivation at 80° C. for 5 min. LTB4 levels were quantified by using LTB4 EIA kit (Cayman, Cat#520111) as instructed and/or LTB4 levelswere measured with LC/MS/MS using Quattro Premier™ XE tandem quadrupole mass spectrometer equipped with Acquity UPLC system (Waters, Milford, Mass.). The method was slightly modified as reported previously (Zweifel et al., 2008, Willey et al., 2008, Chappell et al, 2011). Briefly, chromatographic separation was carried out with Acquity UPLC BEH Shield RP18 Column (2.1 mm×50 mm, 1.7 μm particle size, Waters, Milford, Mass.). Sample injection volume was 10 μl, the column temperature was 35° C., the mobile phase A consisted of water with 0.1% formic acid and the mobile phase B consisted of acetonitrile with 0.1% formic acid. Flow rate was 0.4 mL/min and the gradient condition was as follows.
Relative quantification of LTB4 and LTB4-d4 (Internal Standard) was done using multi reaction monitoring (MRM) of the transitions of m/z 335→195 for LTB4, 339→197 for LTB4-d4 in electrospray ionization (ESI) negative mode. Desolvation temperature was 400° C., source temperature was 130° C. Capillary voltage, cone voltage, and collision voltage were 3.5 kV, 30V, and 20 eV, respectively. Nitrogen was used for desolvation (750 L/h) and cone (50 L/h) gas. Argon was used for collision gas (0.22 ml/min). The dwell time was 10 ms.
Besides the two methods quantifying LTB4 level, a fluorescence assay measuring 5-HpETE was introduced for high-throughput screening in a 384 well microplate format (Pufahl et al., 2007). For nonspecific ester cleavage of the acetate groups in H2DCFDA, the insect cell lysate expressing human 5-LO (Cayman Cat#60402) was incubated with H2DCFDA (50 mM Tris-Cl, pH 7.5, 2 mM CaCl2, 20 uM H2DCFDA, 500 mU 5-LO per reaction) for 5 minutes. Compound and enzyme mixture were pre-incubated for 5 minutes, and the enzymatic reaction was initiated by addition of ATP and arachidonic acid to a final concentration of 100 uM and 3 uM, respectively. After 5 minutes of incubation, the fluorescence was measured using Spectramax M5 (Molecular Device, Ex/Em=485 nm/530 nm). All steps were carried out at room temperature.
A total of 378 compounds were initially tested at a single concentration of 10 uM in duplicate with the results summarized in Table 1. From these 378 compounds, 53 compounds plus an additional 25 were selected for confirmation of activity by 6 or 11 point dose response in duplicate with the corresponding IC50 values outlined in Table 2.
Work on `CCOC(=O)c1c(C)nc2ccccn12` [compound 1, Ethyl 2-methylimidazo[1,2-a]pyridine-3-carboxylate] yielded an inhibition at 10 µM of under 40%.
With `Cc1nc2ccccn2c1C(=O)O` [compound 2, 2-Methylimidazo[1,2-a]pyridine-3-carboxylic acid] the inhibition at 10 µM was under 40%.
With `Cc1nc2ccccn2c1C(=O)NCc1ccccc1` [compound 3, N-Benzyl-2-methylimidazo[1,2-a]pyridine-3-carboxamide] the inhibition at 10 µM was under 40%.
`Cc1nc2ccccn2c1C(=O)NCc1ccc(F)cc1` [compound 4, N-(4-Fluorobenzyl)-2-methylimidazo[1,2-a]pyridine-3-carboxamide] showed an inhibition at 10 µM of under 40%.
Work on `Cc1nc2ccccn2c1C(=O)NCc1cccnc1` [compound 5, 2-Methyl-N-(pyridin-3-ylmethyl)imidazo[1,2-a]pyridine-3-carboxamide] yielded an inhibition at 10 µM of under 40%.
In the case of `Cc1nc2ccccn2c1C(=O)NCc1ccc(Oc2ccccc2)cc1` [compound 6, 2-Methyl-N-(4-phenoxybenzyl)imidazo[1,2-a]pyridine-3-carboxamide], the inhibition at 10 µM is reported as under 40%.
`COc1ccc(CNC(=O)c2c(C)nc3ccccn23)cc1` [compound 7, N-(4-Methoxybenzyl)-2-methylimidazo[1,2-a]pyridine-3-carboxamide] showed an inhibition at 10 µM of under 40%.
In the case of `COc1ccc(CCNC(=O)c2c(C)nc3ccccn23)cc1` [compound 8, N-(4-Methoxyphenethyl)-2-methylimidazo[1,2-a]pyridine-3-carboxamide], the inhibition at 10 µM is reported as under 40%.
For `Cc1nc2ccccn2c1C(=O)NCC1CCCCC1` [compound 9, N-(Cyclohexylmethyl)-2-methylimidazo[1,2-a]pyridine-3-carboxamide], the inhibition at 10 µM was under 40%.
Work on `Cc1nc2ccccn2c1C(=O)NCC1CCN(C(=O)OC(C)(C)C)CC1` [compound 10, tert-Butyl 4-((2-methylimidazo[1,2-a]pyridine-3-carboxamido)methyl)piperidine-1-carboxylate] yielded an inhibition at 10 µM of under 40%.
In the case of `Cc1nc2ccccn2c1C(=O)Nc1ccncc1` [compound 11, 2-Methyl-N-(pyridin-4-yl)imidazo[1,2-a]pyridine-3-carboxamide], the inhibition at 10 µM is reported as under 40%.
`Cc1nc2ccccn2c1C(=O)NCCc1ccccc1` [compound 12, 2-Methyl-N-phenethylimidazo[1,2-a]pyridine-3-carboxamide] gave an inhibition at 10 µM of under 40%.
Compound `Cc1nc2ccccn2c1C(=O)Nc1ccc(Oc2ccccc2)cc1` [compound 13, 2-Methyl-N-(4-phenoxyphenyl)imidazo[1,2-a]pyridine-3-carboxamide] has an inhibition at 10 µM of under 40%.
With `Cc1nc2ccccn2c1C(=O)Nc1ccc(OCc2ccccc2)cc1` [compound 14, N-(4-(Benzyloxy)phenyl)-2-methylimidazo[1,2-a]pyridine-3-carboxamide] the inhibition at 10 µM was under 40%.
In the case of `Cc1nc2c(Cl)cccn2c1C(=O)NCc1ccccc1` [compound 15, N-Benzyl-8-chloro-2-methylimidazo[1,2-a]pyridine-3-carboxamide], the inhibition at 10 µM is reported as under 40%.
With `Cc1nc2cc(Cl)ccn2c1C(=O)NCc1ccccc1` [compound 16, N-Benzyl-7-chloro-2-methylimidazo[1,2-a]pyridine-3-carboxamide] the inhibition at 10 µM was under 40%.
For `Cc1nc2ccc(Cl)cn2c1C(=O)NCc1ccccc1` [compound 17, N-Benzyl-6-chloro-2-methylimidazo[1,2-a]pyridine-3-carboxamide], the inhibition at 10 µM was under 40%.
In the case of `CCOC(=O)c1c(C)nc2cc(-c3ccccc3)ccn12` [compound 18, Ethyl 2-methyl-7-phenylimidazo[1,2-a]pyridine-3-carboxylate], the inhibition at 10 µM is reported as 40 to 69%.
`Cc1nc2cc(-c3ccccc3)ccn2c1C(=O)O` [compound 19, 2-Methyl-7-phenylimidazo[1,2-a]pyridine-3-carboxylic acid] showed an inhibition at 10 µM of under 40%.
`Cc1nc2ccccn2c1C(=O)NCc1ccc(-c2ccccc2)cc1` [compound 20, N-(Biphenyl-4-ylmethyl)-2-methylimidazo[1,2-a]pyridine-3-carboxamide] showed an inhibition at 10 µM of 40 to 69%.
`Cc1nc2ccccn2c1C(=O)NCc1ccc2[nH]ccc2c1` [compound 21, N-((1H-Indol-5-yl)methyl)-2-methylimidazo[1,2-a]pyridine-3-carboxamide] gave an inhibition at 10 µM of under 40%.
For `Cc1nc2cc(-c3ccccc3)ccn2c1C(=O)NCc1ccccc1` [compound 22, N-Benzyl-2-methyl-7-phenylimidazo[1,2-a]pyridine-3-carboxamide], the inhibition at 10 µM was 40 to 69%.
`COC(=O)[C@H](Cc1ccccc1)NC(=O)c1c(C)nc2ccccn12` [compound 23, (S)-Methyl 2-(2-methylimidazo[1,2-a]pyridine-3-carboxamido)-3-phenylpropanoate] showed an inhibition at 10 µM of under 40%.
`Cc1nc2ccccn2c1C(=O)NCC1CCNCC1` [compound 24, 2-Methyl-N-(piperidin-4-ylmethyl)imidazo[1,2-a]pyridine-3-carboxamide] showed an inhibition at 10 µM of under 40%.
With `COC(=O)c1ccc(CNC(=O)c2c(C)nc3ccccn23)cc1` [compound 25, Methyl 4-((2-methylimidazo[1,2-a]pyridine-3-carboxamido)methyl)benzoate] the inhibition at 10 µM was under 40%.
`Cc1nc2ccccn2c1C(=O)NCc1ccc(C(=O)O)cc1` [compound 26, 4-((2-Methylimidazo[1,2-a]pyridine-3-carboxamido)methyl)benzoic acid] showed an inhibition at 10 µM of under 40%.
`CCOC(=O)c1c(C)nc2ccc(-c3ccccc3)cn12` [compound 27, Ethyl 2-methyl-6-phenylimidazo[1,2-a]pyridine-3-carboxylate] was tested, and the inhibition at 10 µM was 40 to 69%.
In the case of `Cc1nc2ccccn2c1C(=O)NCCOc1ccccc1` [compound 28, 2-Methyl-N-(2-phenoxyethyl)imidazo[1,2-a]pyridine-3-carboxamide], the inhibition at 10 µM is reported as under 40%.
`Cc1nc2ccccn2c1C(=O)NCCOCc1ccccc1` [compound 29, N-(2-(Benzyloxy)ethyl)-2-methylimidazo[1,2-a]pyridine-3-carboxamide] gave an inhibition at 10 µM of under 40%.
For `Cc1nc2ccc(C#N)cn2c1C(=O)NCc1ccccc1` [compound 30, N-Benzyl-6-cyano-2-methylimidazo[1,2-a]pyridine-3-carboxamide], the inhibition at 10 µM was under 40%.
`Cc1nc2c(C)cccn2c1C(=O)NCc1ccccc1` [compound 31, N-Benzyl-2,8-dimethylimidazo[1,2-a]pyridine-3-carboxamide] gave an inhibition at 10 µM of under 40%.
For `Cc1ccn2c(C(=O)NCc3ccccc3)c(C)nc2c1` [compound 32, N-Benzyl-2,7-dimethylimidazo[1,2-a]pyridine-3-carboxamide], the inhibition at 10 µM was under 40%.
`Cc1ccc2nc(C)c(C(=O)NCc3ccccc3)n2c1` [compound 33, N-Benzyl-2,6-dimethylimidazo[1,2-a]pyridine-3-carboxamide] showed an inhibition at 10 µM of under 40%.
`Cc1nc2cccc(C)n2c1C(=O)NCc1ccccc1` [compound 34, N-Benzyl-2,5-dimethylimidazo[1,2-a]pyridine-3-carboxamide] showed an inhibition at 10 µM of 40 to 69%.
For `Cc1nc2c(F)cccn2c1C(=O)NCc1ccccc1` [compound 35, N-Benzyl-8-fluoro-2-methylimidazo[1,2-a]pyridine-3-carboxamide], the inhibition at 10 µM was under 40%.
